Experimental findings from ChEMBL document CHEMBL1139622, “Discovery of potent and selective orally bioavailable beta-substituted phenylalanine derived dipeptidyl peptidase IV inhibitors” (Bioorg Med Chem Lett, 2005) are described below.

Among the targets are Dipeptidyl peptidase 9 (Homo sapiens, UniProt Q86TI2); Dipeptidyl peptidase 2 (Homo sapiens, UniProt Q9UHL4); Dipeptidyl peptidase 8 (Homo sapiens, UniProt Q6V1X1).
Data set [1] deals with Dipeptidyl peptidase 4 (Homo sapiens, UniProt P27487).
Chain of Dipeptidyl peptidase 4 (Homo sapiens, UniProt P27487) (P27487 whole entry): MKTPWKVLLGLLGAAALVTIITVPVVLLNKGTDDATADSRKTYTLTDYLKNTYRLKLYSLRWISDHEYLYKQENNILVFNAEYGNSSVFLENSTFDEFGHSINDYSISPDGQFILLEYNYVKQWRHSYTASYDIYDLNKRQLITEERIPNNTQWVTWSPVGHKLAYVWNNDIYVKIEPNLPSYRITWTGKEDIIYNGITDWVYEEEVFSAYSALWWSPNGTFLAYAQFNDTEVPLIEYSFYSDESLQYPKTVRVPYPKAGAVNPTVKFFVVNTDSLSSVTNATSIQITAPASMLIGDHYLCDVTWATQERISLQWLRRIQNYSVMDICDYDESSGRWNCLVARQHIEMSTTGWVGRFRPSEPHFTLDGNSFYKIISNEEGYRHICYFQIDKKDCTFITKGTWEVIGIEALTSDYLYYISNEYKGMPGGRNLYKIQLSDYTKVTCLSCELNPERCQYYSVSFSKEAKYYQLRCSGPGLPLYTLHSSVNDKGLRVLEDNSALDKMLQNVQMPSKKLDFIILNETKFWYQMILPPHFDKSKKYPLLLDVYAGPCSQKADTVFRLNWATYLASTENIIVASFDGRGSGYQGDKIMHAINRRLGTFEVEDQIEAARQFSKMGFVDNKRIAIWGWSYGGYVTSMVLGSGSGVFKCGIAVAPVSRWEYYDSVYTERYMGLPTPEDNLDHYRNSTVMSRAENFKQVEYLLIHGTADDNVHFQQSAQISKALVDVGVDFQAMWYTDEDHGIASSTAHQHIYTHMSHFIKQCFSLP
Description: Inhibitory concentration against dipeptidylpeptidase IV
Data set [2] is described as follows: Plasma clearance in rat. The data set is classed as ADME, organism-based. The following applies: read-out: Clp.
A further data set is described as follows: in vivo. The following applies: rat.
Data set [3] in a line: Half-life in rat. The data set is classed as ADME. Conditions: in vivo.
The nature of data set [4]: Half -life in rat. The data set is classed as ADME. The following applies: in vivo.
A short description of data set [5]: Plasma clearance in rhesus monkey. Conditions: cercopithecidae, read-out: Clp. The data set is classed as ADME, organism-based.
For data set [6], the target named is T1, Dipeptidyl peptidase 4 (Mus musculus, UniProt P28843). The data set is described as follows: Inhibitory concentration against mouse dipeptidylpeptidase IV in presence of 15% mouse serum.
T1 sequence (P28843 whole entry): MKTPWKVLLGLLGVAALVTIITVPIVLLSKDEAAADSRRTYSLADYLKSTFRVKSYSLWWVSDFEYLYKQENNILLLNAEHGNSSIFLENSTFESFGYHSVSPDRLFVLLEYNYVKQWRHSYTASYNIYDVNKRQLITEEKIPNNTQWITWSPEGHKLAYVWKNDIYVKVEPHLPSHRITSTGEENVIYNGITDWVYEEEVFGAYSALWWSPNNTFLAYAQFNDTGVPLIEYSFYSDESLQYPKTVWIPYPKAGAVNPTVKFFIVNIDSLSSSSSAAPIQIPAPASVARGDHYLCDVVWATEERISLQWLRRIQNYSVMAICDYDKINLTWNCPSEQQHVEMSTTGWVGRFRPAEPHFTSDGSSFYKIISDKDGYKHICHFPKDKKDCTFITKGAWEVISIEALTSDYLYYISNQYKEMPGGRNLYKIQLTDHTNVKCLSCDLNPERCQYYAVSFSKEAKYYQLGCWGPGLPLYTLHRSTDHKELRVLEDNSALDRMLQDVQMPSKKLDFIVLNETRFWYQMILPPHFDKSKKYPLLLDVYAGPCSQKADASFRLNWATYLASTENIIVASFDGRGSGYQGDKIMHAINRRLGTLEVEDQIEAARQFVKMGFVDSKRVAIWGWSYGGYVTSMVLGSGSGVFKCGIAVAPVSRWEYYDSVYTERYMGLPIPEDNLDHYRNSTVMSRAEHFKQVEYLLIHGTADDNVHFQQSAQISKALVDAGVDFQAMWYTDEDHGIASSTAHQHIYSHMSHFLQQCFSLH
The nature of data set [7]: Half-life in dog. The class given is ADME, Canis lupus familiaris. The following applies: in vivo.
Data set [8] deals with T1, Dipeptidyl peptidase 4. Put plainly: Inhibitory concentration against mouse dipeptidylpeptidase IV in presence of 3% mouse serum.
Data set [9] is described as follows: Plasma clearance in dog. Conditions: read-out: Clp. The data set is classed as ADME, organism-based, Canis lupus familiaris.
Data set [10] is described as follows: Half-life in rhesus monkey. The data set is classed as ADME. Conditions: cercopithecidae, in vivo.
In data set [11] the target is T1, Dipeptidyl peptidase 4. The data set is described as follows: Inhibitory concentration against mouse dipeptidylpeptidase IV in presence of 50% mouse serum.

pIC50: −log10 of the molar value.

Chain of Dipeptidyl peptidase 8 (Q6V1X1 whole entry): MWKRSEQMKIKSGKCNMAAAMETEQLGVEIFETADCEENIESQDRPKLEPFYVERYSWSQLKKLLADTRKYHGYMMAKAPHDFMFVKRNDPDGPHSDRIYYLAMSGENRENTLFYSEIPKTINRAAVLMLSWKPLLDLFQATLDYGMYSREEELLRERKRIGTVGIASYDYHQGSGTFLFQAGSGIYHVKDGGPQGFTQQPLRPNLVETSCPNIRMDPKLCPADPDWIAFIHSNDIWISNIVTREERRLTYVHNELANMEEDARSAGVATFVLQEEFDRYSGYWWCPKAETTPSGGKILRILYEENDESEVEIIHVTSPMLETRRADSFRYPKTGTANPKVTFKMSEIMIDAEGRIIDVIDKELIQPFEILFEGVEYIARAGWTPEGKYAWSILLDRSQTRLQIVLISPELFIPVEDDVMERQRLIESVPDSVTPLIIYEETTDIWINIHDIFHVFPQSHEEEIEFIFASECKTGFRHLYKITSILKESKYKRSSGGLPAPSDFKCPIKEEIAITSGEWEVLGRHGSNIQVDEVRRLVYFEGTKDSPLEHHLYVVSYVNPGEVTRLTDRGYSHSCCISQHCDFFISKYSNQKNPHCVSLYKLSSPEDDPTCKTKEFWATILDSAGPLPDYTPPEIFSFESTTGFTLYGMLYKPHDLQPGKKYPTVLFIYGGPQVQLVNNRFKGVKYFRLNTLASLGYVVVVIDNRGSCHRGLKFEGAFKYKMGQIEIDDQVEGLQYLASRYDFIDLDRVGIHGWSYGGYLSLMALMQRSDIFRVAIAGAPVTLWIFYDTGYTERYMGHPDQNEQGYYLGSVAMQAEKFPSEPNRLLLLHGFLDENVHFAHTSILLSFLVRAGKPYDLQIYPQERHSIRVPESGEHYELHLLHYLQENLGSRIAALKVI
Chain of Dipeptidyl peptidase 9 (Q86TI2 whole entry): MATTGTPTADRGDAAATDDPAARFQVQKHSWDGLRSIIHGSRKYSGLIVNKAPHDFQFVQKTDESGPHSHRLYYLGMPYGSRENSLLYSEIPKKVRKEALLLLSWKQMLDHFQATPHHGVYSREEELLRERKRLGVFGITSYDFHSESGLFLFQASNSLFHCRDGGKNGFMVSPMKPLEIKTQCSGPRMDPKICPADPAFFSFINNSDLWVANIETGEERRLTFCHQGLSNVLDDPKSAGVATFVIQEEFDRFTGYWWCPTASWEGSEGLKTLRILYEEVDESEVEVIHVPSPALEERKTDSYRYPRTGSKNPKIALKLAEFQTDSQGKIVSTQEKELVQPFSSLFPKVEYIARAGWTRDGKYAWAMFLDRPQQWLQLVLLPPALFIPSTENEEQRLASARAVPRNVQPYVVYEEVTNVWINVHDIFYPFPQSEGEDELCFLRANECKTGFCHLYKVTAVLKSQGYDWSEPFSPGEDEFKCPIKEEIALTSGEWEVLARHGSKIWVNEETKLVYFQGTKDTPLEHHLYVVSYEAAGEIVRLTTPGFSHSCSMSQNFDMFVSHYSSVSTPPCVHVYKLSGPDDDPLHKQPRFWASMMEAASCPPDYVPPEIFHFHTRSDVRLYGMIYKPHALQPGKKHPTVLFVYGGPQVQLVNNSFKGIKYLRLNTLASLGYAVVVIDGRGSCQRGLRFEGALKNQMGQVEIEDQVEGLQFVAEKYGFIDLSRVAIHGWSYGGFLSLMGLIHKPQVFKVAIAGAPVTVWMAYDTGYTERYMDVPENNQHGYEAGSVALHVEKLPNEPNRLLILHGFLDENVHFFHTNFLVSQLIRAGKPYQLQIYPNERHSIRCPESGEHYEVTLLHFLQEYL
Description for Dipeptidyl peptidase 2: Inhibitory concentration against dipeptidylpeptidase II (QPP)
Description for Dipeptidyl peptidase 8: Inhibitory concentration against dipeptidylpeptidase 8
Description for Dipeptidyl peptidase 9: Inhibitory concentration against dipeptidylpeptidase 9

Consider `CN(C)C(=O)[C@@H](c1ccc(-c2ccc(F)cc2F)cc1)[C@H](N)C(=O)N1CC[C@H](F)C1`, for which the pIC50 (as a rule, the IC50 on a negative log10 scale, so that one unit is a factor of ten) is less than 4.00 on Dipeptidyl peptidase 9, 7.89 on Dipeptidyl peptidase 4 [1] and 4.82 at Dipeptidyl peptidase 2.
`CN(C)C(=O)[C@@H](c1ccc(-c2ccc(F)cc2)cc1)[C@H](N)C(=O)N1CCCC1.O=C(O)C(F)(F)F`: the clearance in data set [2] stood at 16 mL/min/kg. The pIC50 against Dipeptidyl peptidase 4 [1] was 8.12; at Dipeptidyl peptidase 2, 4.59. In addition, in the data set “in vivo”, the bioavailability (usually the share of a dose that reaches the circulation, judged against a reference dose that is usually intravenous) came out at 100%. Moreover, in data set [3], the half-life (commonly the time in which the quantity being followed falls by half) is 2 h.
In the case of `CN(C)C(=O)[C@@H](c1ccc(-c2ccc(F)cc2)cc1)[C@H](N)C(=O)N1CCSC1`, the pIC50 against Dipeptidyl peptidase 4 [1] was 8.04; at Dipeptidyl peptidase 2, 5.07.
For the compound `CON(C)C(=O)[C@@H](c1ccc(-c2ccc(F)cc2)cc1)[C@H](N)C(=O)N1CC[C@H](F)C1`, the pIC50 at Dipeptidyl peptidase 9 was less than 4.00; against Dipeptidyl peptidase 4 [1] it was 7.35; on Dipeptidyl peptidase 2, less than 4.00.
Take `CCNC(=O)[C@@H](c1ccc(-c2ccc(F)cc2)cc1)[C@H](N)C(=O)N1CC[C@H](F)C1`: the pIC50 was less than 4.00 against Dipeptidyl peptidase 9, 6.96 on Dipeptidyl peptidase 4 [1], less than 4.00 against Dipeptidyl peptidase 8 and 4.05 on Dipeptidyl peptidase 2.
As for `N[C@H](C(=O)N1CC[C@H](F)C1)[C@@H](C(=O)Nn1cnnn1)c1ccc(-c2ccc(F)cc2)cc1.O=C(O)C(F)(F)F`, the pIC50 on Dipeptidyl peptidase 9 is less than 4.00; on Dipeptidyl peptidase 4 [1] it was 7.96; against Dipeptidyl peptidase 2, less than 4.00. In addition, the clearance in [2] came to 55 mL/min/kg. In “in vivo”, this compound gave a bioavailability of less than 1%. This compound also showed a half-life in data set [3] of 0.2 h.
For the compound `CCN(CC)C(=O)[C@@H](c1ccc(-c2ccc(F)cc2)cc1)[C@H](N)C(=O)N1CC[C@H](F)C1`, the pIC50 against Dipeptidyl peptidase 9 was less than 4.00; at Dipeptidyl peptidase 4 [1], 7.23; at Dipeptidyl peptidase 2 it was 4.32.
As to `N[C@@H](Cc1ccc(-c2ccc(F)cc2)cc1)C(=O)N1CC[C@H](F)C1`, the pIC50 is less than 4.00 against Dipeptidyl peptidase 9, 6.01 against Dipeptidyl peptidase 4 [1], less than 4.00 against Dipeptidyl peptidase 8 and less than 4.00 at Dipeptidyl peptidase 2.
Regarding `CN(C)C(=O)[C@@H](c1ccc(-c2ccc(F)cc2)cc1)[C@H](N)C(=O)N1CC(F)(F)C1`, the pIC50 at Dipeptidyl peptidase 9 was less than 4.00; at Dipeptidyl peptidase 4 [1] it was 7.54; against Dipeptidyl peptidase 8 it was less than 4.00; at Dipeptidyl peptidase 2, 5.03.
In the case of `CC(C)NC(=O)[C@@H](c1ccc(-c2ccc(F)cc2)cc1)[C@H](N)C(=O)N1CC[C@H](F)C1`, the figures for the pIC50 on Dipeptidyl peptidase 9, against Dipeptidyl peptidase 4 [1] and on Dipeptidyl peptidase 2 were less than 4.00, 7.00 and 4.12, respectively.
With `CN(C)C(=O)[C@@H](c1ccc(-c2cccc(C#N)c2)cc1)[C@H](N)C(=O)N1CC[C@H](F)C1`, the results for the pIC50 against Dipeptidyl peptidase 4 [1] and at Dipeptidyl peptidase 2 were 7.37 and 4.24, respectively.
On to `N[C@H](C(=O)N1CC[C@H](F)C1)[C@@H](Cn1cnnn1)c1ccc(-c2ccc(F)cc2)cc1`, for which the pIC50 on Dipeptidyl peptidase 9 was less than 4.00; on Dipeptidyl peptidase 4 [1] it was 6.72; against Dipeptidyl peptidase 8, less than 4.00; against Dipeptidyl peptidase 2 it was less than 4.00.
As to `CNC(=O)[C@@H](c1ccc(-c2ccc(F)cc2)cc1)[C@H](N)C(=O)N1CC[C@H](F)C1`, the pIC50 against Dipeptidyl peptidase 9 was less than 4.00; against Dipeptidyl peptidase 4 [1], 7.43; against Dipeptidyl peptidase 2, less than 4.00.
Regarding `CN(C)C(=O)[C@@H](c1ccc(-c2ccc(F)cc2)cc1)[C@H](N)C(=O)N1CCOCC1`, the pIC50 on Dipeptidyl peptidase 9 was less than 4.00; against Dipeptidyl peptidase 4 [1] it was 6.28; against Dipeptidyl peptidase 8, less than 4.00; against Dipeptidyl peptidase 2, 4.11.
Turning to `NC(=O)[C@@H](c1ccc(-c2ccc(F)cc2)cc1)[C@H](N)C(=O)N1CC[C@H](F)C1`, the pIC50 against Dipeptidyl peptidase 9 was less than 4.00; on Dipeptidyl peptidase 4 [1], 6.96; on Dipeptidyl peptidase 8 it was less than 4.00; on Dipeptidyl peptidase 2, less than 4.00.
As for `COC(=O)[C@@H](c1ccc(-c2ccc(F)cc2)cc1)[C@H](N)C(=O)N1CC[C@H](F)C1`, the pIC50 is less than 4.00 at Dipeptidyl peptidase 9, 6.66 against Dipeptidyl peptidase 4 [1], less than 4.00 on Dipeptidyl peptidase 8 and 4.68 against Dipeptidyl peptidase 2.
Turning to `CN(C)C(=O)[C@@H](c1ccc(-c2ccc(-[n+]3ccccc3)cc2)cc1)[C@H](N)C(=O)N1CC[C@H](F)C1`, the pIC50 against Dipeptidyl peptidase 4 [1] was 7.70; on Dipeptidyl peptidase 8, less than 4.00; against Dipeptidyl peptidase 2, 4.05.
As for `N[C@H](C(=O)N1CC[C@H](F)C1)[C@@H](C(=O)N1CCCC1)c1ccc(-c2ccc(F)cc2)cc1.O=C(O)C(F)(F)F`, in [2], the clearance was 18 mL/min/kg. Moreover, the pIC50 on Dipeptidyl peptidase 4 [1] was 8.04; at Dipeptidyl peptidase 2, 5.25. This compound also came in with a bioavailability in “in vivo” of 21%. The same compound had a half-life in [3] of 1.7 h.
For the compound `CN(C)C(=O)[C@@H](c1ccc(-c2ccc(F)cc2)cc1)[C@H](N)C(=O)N1CCC1`, the pIC50 against Dipeptidyl peptidase 9 is less than 4.00; on Dipeptidyl peptidase 4 [1] it was 7.00; at Dipeptidyl peptidase 8, less than 4.00; against Dipeptidyl peptidase 2 it was less than 4.00.
Regarding `N[C@H](C(=O)N1CC[C@H](F)C1)[C@@H](C(=O)NC1CC1)c1ccc(-c2ccc(F)cc2)cc1`, the figures for the pIC50 against Dipeptidyl peptidase 9, against Dipeptidyl peptidase 4 [1] and against Dipeptidyl peptidase 2 were less than 4.00, 7.15 and 4.26, respectively.
Regarding `CN(C)C(=O)[C@@H](c1ccc(-c2ccc(F)cc2)cc1)[C@H](N)C(=O)N1CCC[C@H]1C#N`, the pIC50 was 8.48 on Dipeptidyl peptidase 4 [1] and 4.40 on Dipeptidyl peptidase 2.
With `CN(C)C(=O)[C@@H](c1ccc(-c2cccc(-n3cnnn3)c2)cc1)[C@H](N)C(=O)N1CC[C@H](F)C1.O=C(O)C(F)(F)F`, the pIC50 at Dipeptidyl peptidase 9 is less than 4.00; on Dipeptidyl peptidase 4 [1], 8.66; against Dipeptidyl peptidase 8, less than 4.00; against Dipeptidyl peptidase 2, 4.54. Besides, the clearance in [2] worked out at 18 mL/min/kg. Besides, the bioavailability in the data set “in vivo” was less than 1%. The same compound gave a half-life in [3] of 0.74 h.
`CN(C)C(=O)[C@@H](c1ccc(-c2cccc(-[n+]3ccccc3)c2)cc1)[C@H](N)C(=O)N1CC[C@H](F)C1`: the pIC50 on Dipeptidyl peptidase 9 was less than 4.00; on Dipeptidyl peptidase 4 [1], 7.72; against Dipeptidyl peptidase 2, 4.24.
On to `N[C@H](C(=O)N1CC[C@H](F)C1)[C@@H](C(=O)O)c1ccc(-c2ccc(F)cc2)cc1.O=C(O)C(F)(F)F`, for which the pIC50 was less than 4.00 on Dipeptidyl peptidase 9, 8.18 on Dipeptidyl peptidase 4 [1], less than 4.00 at Dipeptidyl peptidase 8 and less than 4.00 on Dipeptidyl peptidase 2. Further, the clearance in [2] came out at 0.25 mL/min/kg. This compound also showed a half-life in data set [4] of 3.1 h. In the data set “in vivo”, this compound yielded a bioavailability of 16%.
On to `N[C@H](C(=O)N1CC[C@H](F)C1)[C@@H](C(=O)N1CCC1)c1ccc(-c2ccc(F)cc2)cc1`, for which the pIC50 against Dipeptidyl peptidase 9 is less than 4.00; at Dipeptidyl peptidase 4 [1] it was 7.36; at Dipeptidyl peptidase 2 it was 5.28.
Consider `N[C@H](C(=O)N1CC[C@H](F)C1)[C@@H](CN1CCCC1)c1ccc(-c2ccc(F)cc2)cc1`, for which the pIC50 is less than 4.00 at Dipeptidyl peptidase 9, 5.46 on Dipeptidyl peptidase 4 [1] and 6.15 against Dipeptidyl peptidase 2.
With `N[C@H](C(=O)N1CC[C@H](F)C1)[C@@H](CO)c1ccc(-c2ccc(F)cc2)cc1`, the pIC50 was less than 4.00 against Dipeptidyl peptidase 9, 6.41 against Dipeptidyl peptidase 4 [1], less than 4.00 on Dipeptidyl peptidase 8 and 4.82 against Dipeptidyl peptidase 2.
As for `CN(C)NC(=O)[C@@H](c1ccc(-c2ccc(F)cc2)cc1)[C@H](N)C(=O)N1CC[C@H](F)C1`, the pIC50 against Dipeptidyl peptidase 9 was less than 4.00; on Dipeptidyl peptidase 4 [1], 7.17; against Dipeptidyl peptidase 2, less than 4.00.
Regarding `CN(C)C(=O)[C@@H](c1ccc(-c2ccc(F)cc2)cc1)[C@H](N)C(=O)N1CCCCC1`, the pIC50 against Dipeptidyl peptidase 9 was less than 4.00; at Dipeptidyl peptidase 4 [1] it was 6.26; on Dipeptidyl peptidase 8, less than 4.00; on Dipeptidyl peptidase 2 it was 4.42.
Take `N[C@H](C(=O)N1CC[C@H](F)C1)[C@@H](C(=O)NCCO)c1ccc(-c2ccc(F)cc2)cc1`: the values for the pIC50 at Dipeptidyl peptidase 9 and at Dipeptidyl peptidase 4 [1] were less than 4.00 and 7.03, respectively.
`CN(C)C(=O)[C@@H](c1ccc(-c2ccc(F)cc2)cc1)[C@H](N)C(=O)N1CCC(F)(F)C1`: the pIC50 against Dipeptidyl peptidase 4 [1] was 7.57; against Dipeptidyl peptidase 2, 5.15.
Regarding `CN(C)C(=O)[C@@H](c1ccc(-c2ccc(F)c(F)c2)cc1)[C@H](N)C(=O)N1CC[C@H](F)C1`, the pIC50 against Dipeptidyl peptidase 4 [1] is 7.68; on Dipeptidyl peptidase 2, 4.36.
Regarding `CN(C)C(=O)[C@@H](c1ccc(-c2ccc(F)cc2)cc1)[C@H](N)C(=O)N1CC(F)C1`, the pIC50 against Dipeptidyl peptidase 9 is less than 4.00; on Dipeptidyl peptidase 4 [1], 7.77; on Dipeptidyl peptidase 8 it was less than 4.00; on Dipeptidyl peptidase 2 it was 4.24.
Turning to `CN(C)C(=O)[C@@H](c1ccc(-c2ccc(F)cc2)cc1)[C@H](N)C(=O)N1CCS(=O)(=O)C1`, the pIC50 was less than 4.00 against Dipeptidyl peptidase 9, 6.64 against Dipeptidyl peptidase 4 [1], less than 4.00 at Dipeptidyl peptidase 8 and 4.12 at Dipeptidyl peptidase 2.
`CN(C)C(=O)[C@@H](c1ccc(-c2cc(F)ccc2F)cc1)[C@H](N)C(=O)N1CC[C@H](F)C1`: the pIC50 was less than 4.00 against Dipeptidyl peptidase 9, 7.25 on Dipeptidyl peptidase 4 [1] and 4.96 on Dipeptidyl peptidase 2.
Take `CN(C)C(=O)[C@@H](c1ccc(-c2ccc(F)cc2)cc1)[C@H](N)C(=O)N1CC[C@H](F)C1.O=C(O)C(F)(F)F`: the results for the clearance in data set [5], in data set [2] and in data set [9] were 2.4 mL/min/kg, 4.8 mL/min/kg and 1.5 mL/min/kg, respectively. Also, the pIC50 at Dipeptidyl peptidase 4 [6] is 7.15; at Dipeptidyl peptidase 4 [8] it was 7.30; on Dipeptidyl peptidase 4 [11] it was 6.64. Besides, the half-life in data set [7] is 6.1 h; in [10], 4.7 h; in [3], 3.5 h.
Take `CCN(C)C(=O)[C@@H](c1ccc(-c2ccc(F)cc2)cc1)[C@H](N)C(=O)N1CC[C@H](F)C1`: the pIC50 at Dipeptidyl peptidase 9 is less than 4.00; against Dipeptidyl peptidase 4 [1] it was 7.70; at Dipeptidyl peptidase 2, 4.37.
On the same counts, the results for `CN(C)C[C@@H](c1ccc(-c2ccc(F)cc2)cc1)[C@H](N)C(=O)N1CC[C@H](F)C1` are less than 4.00, 5.80 and 5.60.
In the case of `CN(C)C(=O)[C@@H](c1ccc(-c2cccc(S(C)(=O)=O)c2)cc1)[C@H](N)C(=O)N1CC[C@H](F)C1`, the pIC50 against Dipeptidyl peptidase 9 is less than 4.00; against Dipeptidyl peptidase 4 [1], 7.68; against Dipeptidyl peptidase 8 it was less than 4.00; against Dipeptidyl peptidase 2, 4.09.
